# Measured values: patent publication EP2678315B1, “(Pyridin-4-yl)benzylamides as allosteric modulators of alpha 7 nAChR” (Janssen Pharmaceutica, N.V., priority 2011, dated 2012)
# Several values for one entry are separate records, joined by “and”; a condition that tells them apart may be missing. Identical values can stand only once. Like-named read-outs stand apart in the source and are kept apart here.
# Molecular target: T1, human alpha 7-wt nAChR (Homo sapiens, UniProt P36544)
# T1 construct: expressed in transfected cells
# Assay: Ca2+ flux imaging (FDSS) (protocol B)
# Format: cell-based
# Conditions: for EC50: read-out: pEC50 (converted); for Emax: read-out: % Efficacy
# Procedure: Example D.1 : Ca^2+ flux imaging (FDSS) (protocol B)
# • a) Assay buffer Hanks buffered saline solution (HBSS, Invitrogen, Belgium), supplemented with 10 mM HEPES (Invitrogen, Belgium), CaCl2 to a final concentration of 5 mM, 0.1 % Bovine serum albumin (Sigma-Aldrich NV, Belgium). • b) Calcium-sensitive dye - Fluo-4AM Fluo-4AM (Molecular Probes, USA) was dissolved in DMSO containing 10% Pluronic acid (Molecular Probes, USA) to give a stock solution which was diluted in assay buffer supplemented with 5 mM probenicid (Sigma, Aldrich NV, Belgium) to give a final concentration of 2 µM • c) 384-well plates Black-sided, transparent bottomed 384 well plates coated with poly-D-lysine, PDL pre-coated (Coming, Incorporated, USA) • d) Calcium flux measurement A Functional drug screening system (FDSS, Hamamatsu) was used to measure intracellular free-calcium flux signals.
# Monolayers of human alpha 7-wt nAChR-expressing cells were grown in black-sided, transparent bottomed 384 well plates coated with PDL for 24 hours prior to loading with a fluorescent calcium indicator, fluo-4AM for up to 120 minutes.
# PAM activity was detected in real time by applying the compounds to be tested to the loaded cells along with an alpha 7 nicotinic receptor agonist during constant monitoring of cellular fluorescence in a FDSS. Compounds giving peak fluorescent responses greater than the response due to agonist alone, were consideted to be alpha 7 nAChR PAMs. The alpha 7 nicotinic receptor agonist was choline, applied at a sub-maximal concentration of 100 µM. In a further setting of the present invention the compounds were applied prior to the alpha 7 nicotinic receptor agonist, in a particular 10 minutes prior to the agonist.
# A control response to choline was calculated on each plate from the difference in peak in fluorescence in wells receiving either choline or assay buffer alone. Compounds of the present invention were tested at a concentration range from 0.01 µM to 30 µM. Compounds were considered to have an interesting activity when they potentiated the choline signal at least with 200 % when tested at a concentration of 30 µM (the efficacy of 100 µM choline was defined as 100% in the absence of a PAM). An EC50 (or pEC50) was determined as a concentration relating to half the maximal effect, when a clear sigmoidal curve with top plateau was obtained.
# T1 sequence (P36544 23-502): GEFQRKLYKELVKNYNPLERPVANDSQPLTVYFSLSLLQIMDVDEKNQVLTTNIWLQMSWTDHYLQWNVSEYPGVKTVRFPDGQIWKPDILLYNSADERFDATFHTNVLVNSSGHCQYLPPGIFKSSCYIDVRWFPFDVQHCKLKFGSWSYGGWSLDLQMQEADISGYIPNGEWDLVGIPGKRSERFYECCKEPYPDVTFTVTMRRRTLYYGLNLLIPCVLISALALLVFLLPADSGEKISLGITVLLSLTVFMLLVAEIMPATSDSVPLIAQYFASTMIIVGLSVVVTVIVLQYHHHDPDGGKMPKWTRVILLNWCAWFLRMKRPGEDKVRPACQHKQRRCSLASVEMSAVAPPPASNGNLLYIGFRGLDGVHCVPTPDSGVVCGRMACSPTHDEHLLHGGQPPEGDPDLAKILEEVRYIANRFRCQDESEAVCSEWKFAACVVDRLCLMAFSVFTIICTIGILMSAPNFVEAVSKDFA
SMILES,EC50 (Ca2+ assay as described in D.1),Emax,also measured
Cc1cc(-c2ccc(N3CCO[C@@H](C(F)(F)F)C3)c(F)c2CNC(=O)c2cc(C)on2)cc(C)n1 [Compound 57],234 nM,,
Cc1cc(-c2ccc(N3CCO[C@@H](C(F)(F)F)C3)c(F)c2CNC(=O)c2conc2C)cc(C)n1 [Compound 58],269 nM,,
Cc1cc(-c2ccc(N3CCO[C@@H](C(F)(F)F)C3)c(F)c2CNC(=O)CC2CC2)cc(C)n1 [Compound 59],83.2 nM,,
Cc1cc(-c2ccc(N3CCO[C@H](C(F)(F)F)C3)c(F)c2CNC(=O)CC2CC2)cc(C)n1 [Compound 64],309 nM,,
Cc1cc(-c2ccc(N3CCO[C@H](C(F)(F)F)C3)c(F)c2CNC(=O)C(C)C)cc(C)n1 [Compound 65],575 nM,,
Cc1cc(-c2ccc(N3CCO[C@H](C(F)(F)F)C3)c(F)c2CNC(=O)c2conc2C)cc(C)n1 [Compound 66],398 nM,649%,
Cc1cc(-c2ccc(N3CCO[C@H](C(F)(F)F)C3)c(F)c2CNC(=O)c2cc(C)on2)cc(C)n1 [Compound 67],347 nM,,
Cc1cc(-c2ccc(N3CCO[C@H](C(F)(F)F)C3)c(F)c2CNC(=O)CC(C)C)cc(C)n1 [Compound 68],132 nM,,
Cc1cc(-c2ccc(N3CCO[C@H](C(F)(F)F)C3)c(F)c2CNC(=O)C2CC2)cc(C)n1 [Compound 69],776 nM,,
Cc1cc(-c2ccc(N3CCO[C@H](C(F)(F)F)C3)c(F)c2CNC(=O)CC2CCC2)cc(C)n1 [Compound 70],115 nM,,
Cc1cc(-c2ccc(N3CCO[C@@H](C(F)(F)F)C3)c(F)c2CNC(=O)CC2CCC2)cc(C)n1 [Compound 71],32.4 nM,,
Cc1cc(-c2ccc(N3CCO[C@@H](C(F)(F)F)C3)c(F)c2CNC(=O)CC(C)C)cc(C)n1 [Compound 72],14.8 nM,,
Cc1cc(-c2ccc(N3CCO[C@@H](C(F)(F)F)C3)c(F)c2CNC(=O)C2CC2)cc(C)n1 [Compound 73],741 nM,878%,
Cc1cc(-c2c(F)cc(N3C[C@@H](C)O[C@@H](C)C3)cc2CNC(=O)CC2CC2)cc(C)n1 [Compound 74],11.2 nM,508%,
Cc1cc(-c2c(F)cc(N3C[C@@H](C)O[C@@H](C)C3)cc2CNC(=O)c2cc(C)on2)cc(C)n1 [Compound 75],209 nM,,
Cc1cc(-c2c(F)cc(N3C[C@@H](C)O[C@@H](C)C3)cc2CNC(=O)c2conc2C)cc(C)n1 [Compound 76],~38 nM,572%,
Cc1cc(-c2c(F)cc(N3C[C@@H](C)O[C@@H](C)C3)cc2CNC(=O)CC(F)(F)F)cc(C)n1 [Compound 77],,,Emax (Ca2+ assay as described in D.1): 136%
Cc1cc(-c2c(F)cc(N3C[C@@H](C)O[C@@H](C)C3)cc2CNC(=O)C(C)C)cc(C)n1 [Compound 78],21.9 nM,707%,
Cc1cc(-c2c(F)cc(N3C[C@@H](C)O[C@@H](C)C3)cc2CNC(=O)C2CC2)cc(C)n1 [Compound 79],17.4 nM,381%,
Cc1cc(-c2c(F)cc(N3C[C@@H](C)O[C@@H](C)C3)cc2CNC(=O)CC2CCC2)cc(C)n1 [Compound 80],6.17 nM,,
Cc1cc(-c2c(F)cc(N3C[C@@H](C)O[C@@H](C)C3)cc2CNC(=O)CCC(F)(F)F)cc(C)n1 [Compound 81],5.37 nM,,
Cc1cc(-c2c(F)cc(N3C[C@@H](C)O[C@@H](C)C3)cc2CNC(=O)CC(C)C)cc(C)n1 [Compound 83],7.08 nM,906%,

SMILES,EC50 (Ca2+ assay as described in D.1),Emax,also measured
Cc1cc(-c2c(F)cc(N3C[C@@H](C)O[C@@H](C)C3)cc2CNC(=O)CC(C)(C)C)cc(C)n1 [Compound 84],9.33 nM,686%,
Cc1cc(-c2c(F)cc(N3C[C@@H](C)O[C@@H](C)C3)cc2CNC(=O)C2CCC2)cc(C)n1 [Compound 85],6.17 nM,954%,
Cc1cc(-c2c(F)cc(N3C[C@@H](C)O[C@@H](C)C3)cc2CNC(=O)CC2CC2)ccn1 [Compound 87],79.4 nM,,
Cc1cc(-c2c(F)cc(N3C[C@@H](C)O[C@@H](C)C3)cc2CNC(=O)c2cc(C)on2)ccn1 [Compound 90],525 nM,,
Cc1cc(-c2c(F)cc(N3C[C@@H](C)O[C@@H](C)C3)cc2CNC(=O)CC(C)C)ccn1 [Compound 92],12.6 nM,,
Cc1cc(-c2c(F)cc(N3CCCC(C(F)(F)F)C3)cc2CNC(=O)C(C)C2CC2)cc(C)n1 (centres unmarked) [Compound 93],36.3 nM,736%,
Cc1cc(-c2c(F)cc(N3CCCC(C(F)(F)F)C3)cc2CNC(=O)c2cc(C)on2)cc(C)n1 (centres unmarked) [Compound 94],195 nM,428%,
Cc1cc(-c2c(F)cc(N3CCCC(C(F)(F)F)C3)cc2CNC(=O)CC2CC2)cc(C)n1 (centres unmarked) [Compound 95],27.5 nM,427%,
Cc1cc(-c2c(F)cc(N3CCCC(C(F)(F)F)C3)cc2CNC(=O)C(C)C)cc(C)n1 (centres unmarked) [Compound 96],,,Emax (Ca2+ assay as described in D.1): 148%
Cc1cc(-c2c(F)cc(N3CCCC(C(F)(F)F)C3)cc2CNC(=O)C2CC2)cc(C)n1 (centres unmarked) [Compound 97],19.5 nM,330%,
Cc1cc(-c2c(F)cc(N3CCCC(C(F)(F)F)C3)cc2CNC(=O)c2conc2C)cc(C)n1 (centres unmarked) [Compound 98],,,Emax (Ca2+ assay as described in D.1): 119%
Cc1cc(-c2c(F)cc(N3CCO[C@@H](C(F)(F)F)C3)cc2CNC(=O)CC(C)C)cc(C)n1 [Compound 101],< 10 nM,,
Cc1cc(-c2c(F)cc(N3C[C@@H](C)O[C@@H](C)C3)c(F)c2CNC(=O)C2CC2)cc(C)n1 [Compound 122],589 nM,,
Cc1cc(-c2ccc(N3CC4CCC(C3)O4)cc2CNC(=O)C(C)C)cc(C)n1 [Compound 129],724 nM,296%,
Cc1cc(-c2ccc(N3CC4CCC(C3)O4)cc2CNC(=O)CC2CC2)cc(C)n1 [Compound 130],,,Emax (Ca2+ assay as described in D.1): 95.5%
Cc1cc(-c2ccc(N3C[C@@H](C)O[C@@H](C)C3)c(CNC(=O)c3ccc(F)cc3C)c2)cc(C)n1 [Compound 135],14.1 nM,,
Cc1nocc1C(=O)NCc1cc(N2CCOCC2)ccc1-c1ccncc1 [Compound 138],,,Emax (Ca2+ assay as described in D.1): 386%
O=C(CC1CC1)NCc1cc(N2CCOCC2)ccc1-c1ccncc1 [Compound 139],3160 nM,367%,
Cc1cc(-c2ccc(N3CCOCC3)cc2CNC(=O)C(C)C)ccn1 [Compound 140],,,% Efficacy (Ca2+ assay as described in D.1): 495.5% and 591.6%
Cc1cc(-c2ccc(N3CCOCC3)cc2CNC(=O)c2cc(C)on2)ccn1 [Compound 142],,,Emax (Ca2+ assay as described in D.1): 545%
Cc1cc(-c2ccc(N3CCOCC3)cc2CNC(=O)c2conc2C)ccn1 [Compound 143],8710 nM,130%,
